Measurements: patent publication US20240398781A1, “SPIROCYCLIC CYCLIC MODULATORS OF CHOLESTEROL BIOSYNTHESIS AND THEIR USE FOR PROMOTING REMYELINATION” (GENENTECH, INC., priority 2021, published 2024)

What was measured:
[1] = target: human emopamil binding protein and human 7-dehydrocholesterol reductase co-expressing cells (hEBP-DHCR7 membrane) (Homo sapiens (Human), UniProt Q15125); experiment: Radioligand filter binding assay on hEBP-DHCR7 membrane; conditions: [3H]-(S)-6-(2-Methyl-3-(6-(trifluoromethyl)pyridin-3-yl)propyl)-2-thia-6-azaspiro[3.4]octane 2,2-dioxide radioligand, HEK293 membrane co-expressing hEBP and hDHCR7
In short: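 HEK293 cells transiently co-expressing human EBP and DHCR7 supplied whole-cell membranes (10 μg/well), incubated 3 h at 22 °C with [3H]-labelled spiro-octane dioxide ligand (added at 25 nM) and compound (0.06-5000 nM final, 8 doses, n=2). Bound ligand was collected on PEI-treated GF/B filters and counted by scintillation. IC50 was Hill-fitted from % inhibition and reported as Ki.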

[2] = tested on: EBP (zymostenol accumulation in EpiSC-derived OPCs); experiment: GC/MS-based sterol profiling, zymostenol accumulation in OPCs; format: cell-based, mouse; conditions: Mus musculus, 24 h, EpiSC-derived OPCs, 24 hr treatment, 8 doses from 0.15 nM to 333 nM; read-out: Zymostenol GCMS EC50
In short: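 EpiSC-derived OPCs (100,000/well) were treated 24 h in N2B27 without growth factors. Sterols were TMS-derivatized and analysed by GC/MS full-scan EI, quantified against cholesterol-d7. Zymostenol was normalized to the level after 24 h with 100 nM positive control reference.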

EpiSC-derived OPCs = experiment: In vitro phenotypic screening of OPCs (MBP staining, high-content imaging); format: cell-based, mouse; conditions: Mus musculus, 72 h, percentage of MBP+ oligodendrocytes, 3 days, 0.5 nM to 1000 nM; read-out: OPC EC50
In short: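 Readout: high-content imaging of MBP immunostaining around DAPI nuclei, giving percent oligodendrocytes, with EC50 from a Levenberg-Marquardt Hill fit. Epiblast stem cell-derived OPCs were plated on laminin at 150,000/cm^2 in growth-factor-free N2B27. They were exposed 3 days to an 8-point series, 0.5-1000 nM final, in two or more independent platings.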

human emopamil binding protein and human 7-dehydrocholesterol reductase co-expressing cells (hEBP-DHCR7 membrane), sequence (Q15125 whole entry): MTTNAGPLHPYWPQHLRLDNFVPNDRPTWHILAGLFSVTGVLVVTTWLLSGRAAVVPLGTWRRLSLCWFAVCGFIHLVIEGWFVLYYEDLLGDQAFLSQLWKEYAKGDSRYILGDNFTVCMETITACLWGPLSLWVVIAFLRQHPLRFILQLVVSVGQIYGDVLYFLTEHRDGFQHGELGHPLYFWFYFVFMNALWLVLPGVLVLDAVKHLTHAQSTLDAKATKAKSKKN

Structure (SMILES) | Ki [1] [nM] | EC50 [2] [nM] | EC50 (EpiSC-derived OPCs) [nM]
O=S1(=O)CC2(CCN([C@H]3CC[C@H](c4ncc(C(F)(F)F)cc4Cl)CC3)C2)C1 [Compound 48A, 6-((1r,4r)-4-(3-chloro-5-(trifluoromethyl)pyridin-2-yl)cyclohexyl)-2-thia-6-azaspiro[3.4]octane 2,2-dioxide] | 31 | 3.7 | 4
Cc1nc(C(F)(F)F)ccc1[C@H]1CC[C@H](N2CCC3(C2)CS(=O)(=O)C3)CC1 [Compound 51A, 6-((1r,4r)-4-(2-Methyl-6-(trifluoromethyl)pyridin-3-yl)cyclohexyl)-2-thia-6-azaspiro[3.4]octane 2,2-dioxide] | 26 | 8.3 | 18
O=S1(=O)CC2(CCN(C3CCN(c4ncc(C(F)(F)F)cc4F)CC3)CC2)C1 [Compound 52, 7-(1-(3-Fluoro-5-(trifluoromethyl)pyridin-2-yl)piperidin-4-yl)-2-thia-7-azaspiro[3.5]nonane 2,2-dioxide] | 18 | 4.8 | 7.7
O=S1(=O)CC2(CCN([C@H]3CC[C@H](c4ncc(C(F)(F)F)cc4F)CC3)C2)C1 [Compound 59, 6-((1r,4r)-4-(3-Fluoro-5-(trifluoromethyl)pyridin-2-yl)cyclohexyl)-2-thia-6-azaspiro[3.4]octane 2,2-dioxide] | 72 | 13 | 82
O=S1(=O)CC2(CCN([C@H]3CC[C@H](c4ccnc(C(F)(F)F)c4)CC3)C2)C1 [Compound 60A, 6-((1r,4r)-4-(2-(trifluoromethyl)pyridin-4-yl)cyclohexyl)-2-thia-6-azaspiro[3.4]octane 2,2-dioxide] | 133 | 10 | 21
O=S1(=O)CC2(CCN([C@H]3CC[C@H](c4cccc(C(F)(F)F)n4)CC3)C2)C1 [Compound 62B, 6-((1r,4r)-4-(6-(trifluoromethyl)pyridin-2-yl)cyclohexyl)-2-thia-6-azaspiro[3.4]octane 2,2-dioxide] | 37 | 6.4 | 13
CC(C)(C)n1nc(C(F)(F)F)cc1[C@H]1CC[C@H](N2CCC3(C2)CS(=O)(=O)C3)CC1 [Compound 73, 6-((1r,4r)-4-(1-(tert-Butyl)-3-(trifluoromethyl)-1H-pyrazol-5-yl)cyclohexyl)-2-thia-6-azaspiro[3.4]octane 2,2-dioxide] | 21 | 33 | 110
CC(C)(C)n1nc(C2CC2)nc1[C@@H]1CC[C@H](N2CCC3(C2)CS(=O)(=O)C3)C1 [Compound 74A, 6-((1S,3R)-3-(1-(tert-butyl)-3-cyclopropyl-1H-1,2,4-triazol-5-yl)cyclopentyl)-2-thia-6-azaspiro[3.4]octane 2,2-dioxide] | 154 | 31 | 230
CC(C)(C)n1nc(C2CC2)nc1[C@H]1CC[C@@H](N2CCC3(C2)CS(=O)(=O)C3)C1 [Compound 74B, 6-((1R,3S)-3-(1-(tert-butyl)-3-cyclopropyl-1H-1,2,4-triazol-5-yl)cyclopentyl)-2-thia-6-azaspiro[3.4]octane 2,2-dioxide] | 494 | 17 | 76
O=S1(=O)CC2(CCN([C@H]3CC[C@H](c4ccc(F)c(F)c4)CC3)CC2)C1 [Compound 77A, 7-((1r,4r)-4-(3,4-Difluorophenyl)cyclohexyl)-2-thia-7-azaspiro[3.5]nonane 2,2-dioxide] | 33 | 5.7 | 13
O=S1(=O)CC2(CCCN([C@H]3CC[C@H](c4ccc(C(F)(F)F)nc4)CC3)C2)C1 [Compound 79, 6-((1r,4r)-4-(6-(Trifluoromethyl)pyridin-3-yl)cyclohexyl)-2-thia-6-azaspiro[3.5]nonane 2,2-dioxide] | 22 | 9.7 | 36
O=S1(=O)CC2(CCN([C@H]3CC[C@@H](c4ncc(C(F)(F)F)cc4F)CC3)CC2)C1 [Compound 80B, 7-((1s,4s)-4-(3-fluoro-5-(trifluoromethyl)pyridin-2-yl)cyclohexyl)-2-thia-7-azaspiro[3.5]nonane 2,2-dioxide] | 28 | 8 | 38
O=S1(=O)CC2(CCN([C@H]3CC[C@H](c4cc(C(F)(F)F)ncn4)CC3)C2)C1 [Compound 83, 6-((1r,4r)-4-(6-(Trifluoromethyl)pyrimidin-4-yl)cyclohexyl)-2-thia-6-azaspiro[3.4]octane 2,2-dioxide] | 120 | 34 | 280
CC(C)(C)n1nc(C(F)(F)F)cc1[C@H]1CC[C@@H](N2CCC3(CC2)CS(=O)(=O)C3)CC1 [Compound 85B, 7-((1s,4s)-4-(1-(tert-butyl)-3-(trifluoromethyl)-1H-pyrazol-5-yl)cyclohexyl)-2-thia-7-azaspiro[3.5]nonane 2,2-dioxide] | 300 | 17 | 48

The next compounds have a lower Ki [1] than those just listed; values first:

Ki [1] [nM] | EC50 [2] [nM] | EC50 (EpiSC-derived OPCs) [nM] | Structure (SMILES)
17 | 13 | 49 | O=S1(=O)CC2(CCN(C3CCN(c4ncc(F)cc4C(F)(F)F)CC3)C2)C1 [Compound 45, 6-(1-(5-Fluoro-3-(trifluoromethyl)pyridin-2-yl)piperidin-4-yl)-2-thia-6-azaspiro[3.4]octane 2,2-dioxide]
15 | 3.7 | 11 | CCc1nc(C(F)(F)F)ccc1[C@H]1CC[C@H](N2CCC3(C2)CS(=O)(=O)C3)CC1 [Compound 64A, 6-((1r,4r)-4-(2-ethyl-6-(trifluoromethyl)pyridin-3-yl)cyclohexyl)-2-thia-6-azaspiro[3.4]octane 2,2-dioxide]
14 | 4.1 | 8.9 | CC(C)c1nc(C(F)(F)F)ccc1[C@H]1CC[C@H](N2CCC3(C2)CS(=O)(=O)C3)CC1 [Compound 65A, 6-((1r,4r)-4-(2-isopropyl-6-(trifluoromethyl)pyridin-3-yl)cyclohexyl)-2-thia-6-azaspiro[3.4]octane 2,2-dioxide]
11 | 3.2 | 5 | O=S1(=O)CC2(CCN([C@H]3CC[C@H](c4ccc(C(F)(F)F)nc4C4CC4)CC3)C2)C1 [Compound 75, 6-((1r,4r)-4-(2-Cyclopropyl-6-(trifluoromethyl)pyridin-3-yl)cyclohexyl)-2-thia-6-azaspiro[3.4]octane 2,2-dioxide]
9 | 4 | 14 | O=S1(=O)CC2(CCN(C3CCN(c4ncc(C(F)(F)F)cc4C4CC4)CC3)C2)C1 [Compound 44, 6-(1-(3-Cyclopropyl-5-(trifluoromethyl)pyridin-2-yl)piperidin-4-yl)-2-thia-6-azaspiro[3.4]octane 2,2-dioxide]
8 | 5 | 15 | O=S1(=O)CC2(CCN([C@H]3CC[C@@H](c4ccc(F)c(F)c4)CC3)CC2)C1 [Compound 77B, 7-((1s,4s)-4-(3,4-difluorophenyl)cyclohexyl)-2-thia-7-azaspiro[3.5]nonane 2,2-dioxide]
6.5 | 4 | 18 | O=S1(=O)CC2(CCN([C@H]3CC[C@H](c4ccc(F)c(F)c4)CC3)C2)C1 [Compound 70A, 6-((1r,4r)-4-(3,4-difluorophenyl)cyclohexyl)-2-thia-6-azaspiro[3.4]octane 2,2-dioxide]
